Data set [1] relates to db/db mice. Kind of data set: Visual electrophysiological examination (dark and light adaptation) after 18 weeks of gavage. The settings on record: gavage 20 mg/kg/day, 1 time per day, vs db/db+water. In kind it is in vivo. On the procedure:
(§1) The 3-month-old db/db mice were randomly divided into two groups and subjected to intragastric gavage experiments: • group 1: gavage of water (denoted as db/db+water, 0.06 mL/10 g, 7 mice in total); • group 2: gavage of the L-ABH (denoted as db/db+L-ABH, 20 mg/kg/day, 10 mice in total).
(§2) Each group was gavaged 1 time per day according to the dosage for 18 weeks.
(§3) The 3-month-old wild-type mice were gavaged in the same manner as the group 1 (denoted as WT+water, 0.06 mL/10 g, 6 mice in total).
(1) After the gavage, visual electrophysiological examinations were conducted on the mice in each group.
In FIGS. 2A-2H, (dark adapted 0.01, dark adapted 3.0, dark adapted 10.0 and dark adapted 3.0 oscillatory potentials) show 4 tests under visual electrophysiological dark adaptation. […] In FIGS. 3A-3D, (light adapted 3.0, and light adapted 30 Hz flicker) show 2 tests after visual electrophysiological light adaptation.

For data set [2], the system named is db/db mice. Kind of data set: OCT experiment (circular and linear scan; RNFL and total retinal thickness). Type of data set: in vivo. The settings on record: gavage 20 mg/kg/day, 18 weeks, vs db/db+water. As to the method:
as §1, §2, §3
(2) After the gavage, an OCT experiment was conducted.
After the mice were anesthetized, tropicamide eye drops were used to dilate pupils, and after the mice entered deep anesthesia, ofloxacin was used to cover an ocular surface. The mice were placed on a mouse holder, their body position and the position knob were adjusted such that the lens was directly facing a center of mouse pupil. The position was fine-tuned from far to near such that an optic disc was located in a center of fundus image, and a focus was adjusted to make the image clear. A linear scan was conducted, where a linear scan position was moved to the vicinity of the optic disc, parameters and position were fine-tuned such that an OCT image passed through the optic disc and the optic disc was located in the middle, thus obtaining a cross-section of the retina from a temporal side to a nasal side. […]

Data set [3] deals with db/db mice. Kind of data set: Retinal Brn3a immunofluorescence (RGC counting). Type of data set: in vivo. The settings on record: gavage 20 mg/kg/day, 18 weeks, vs db/db+water. As to the method:
as §1, §2, §3
(3) After the gavage, retinal Brn3a immunofluorescence experiment was conducted.
After the mice were euthanized, periocular tissue of the mice was cut open, their eyeball of the mice was cut out and placed in a 5 mL centrifuge tube containing 4% PFA to allow fixation for 24 h, and the retinas were separated and cut into 4 petal shapes. The retinas were washed with PBS, permeabilized for 45 min, and blocked for 2 h. After removing a blocking solution, a Brn3a antibody was diluted (1:100) with PBS buffer containing 1% BSA, incubated overnight at 4° C., and then washed with the PBS. […] LSM 880 confocal laser microscope was used to take a full retinal mosaic, and then fluorescent images of the inner, middle, and outer 3 areas were intercepted on the 4 petals of the retina, that is, 12 areas of one retina were intercepted to allow fluorescence counting statistics. […]

Data set [4] has as its system db/db mice. Nature of the data set: Retinal digest preparation, PAS staining (endothelial cells, pericytes, acellular capillaries). In kind it is in vivo. The following applies: gavage 20 mg/kg/day, 18 weeks, vs db/db+water. On the procedure:
as §1, §2, §3
(4) After the gavage, the retinal digest preparation stretched preparation-PAS staining experiment was conducted.
After the mice were euthanized, eyeballs of the mice were removed and fixated with 4% PFA for 48 h, the retinas of the mice were separated and rinsed in ddH2O on a shaker at room temperature overnight, a fixative was removed, and the retinas were cut in half. The retinas were placed in 3% trypsin (prepared in 0.2 M Tris buffer, pH=7.4) and digested at 37° C. for 1 h. […] The nuclei were washed with running water, dehydrated routinely, transparentized with xylene, sealed with neutral gum, and then 6 to 8 fields of view were randomly selected for counting and observation under a microscope, and the number of pericytes and endothelial cells was calculated.

Data set [5] has as its system neonatal mice, hypoxia-induced retinopathy model. Nature of the data set: OIR experiment, hypoxia-induced retinopathy model (isolectin staining, area of retinal angiogenesis). In kind it is in vivo. The settings on record: intraperitoneal 7 mg/kg/day, 1 time a day from day 12 after birth, 5 days, vs OIR+Saline. On the procedure: In this example, the effect of L-ABH was verified in a hypoxia-induced model. The hypoxia-induced retinopathy model could be used as a model of ROP and a late-stage model of DR. OIR experiment: neonatal mice on the 7th day after birth and mother mice were randomly divided into 3 groups. Two groups of the neonatal mice and the mother mice were placed in an OIR oxygen chamber. The neonatal mice in group 1 were intraperitoneally injected with L-ABH (7 mg/kg/day) 1 time a day from the 12th day after birth for 5 consecutive days, recorded as OIR+L-ABH (ip), with a total of 5 mice. While the neonatal mice in group 2 were intraperitoneally injected with an equal amount of saline every day from the 12th day, recorded as OIR+Saline, with a total of 5 mice. After 5 day of hyperoxia, hypoxia-induced models were established in the group 1 and the group 2. The mice in group 3 were fed normally and intraperitoneally injected with an equal volume of saline every day, recorded as WT, with a total of 5 mice. After 5 day of hyperoxia, the neonatal and the mother mice were taken out from the oxygen chamber. The neonatal and the mother mice in the 3 groups were raised normally for 5 days, then the neonatal mice were sacrificed, subjected to stretched preparation and stained with isolectin, and then analyzed for the area of retinal angiogenesis. […]

Data set [6] in a line: Toxicity and tolerability of L-ABH on long-term oral administration. The settings on record: no test described. Type of data set: in vivo. An excerpt:
L-aspartic acid β-hydroxamate (L-ABH) is a reversible serine racemase (SR) inhibitor. […] However, there is no clear report on whether the L-ABH could be used for retinal neuroprotection as well as prevention and treatment of retinopathy.

In data set [7] the test system is db/db mice. The settings on record: previous studies, cited from earlier work.
For data set [8] the following is noted: oral 20 mg/kg/d for three months (patent ZL 202110755406.0); 20 mg/kg/day; cited from earlier work.

This is an account of results in US20250281439A1, “USE OF L-ASPARTIC ACID BETA-HYDROXAMATE (L-ABH) IN PREPARATION OF DRUG FOR DIABETIC RETINOPATHY (DR) OR RETINOPATHY OF PREMATURITY (ROP)” (Wenzhou Medical University, priority 2024, published 2025).

“Also recorded” adds a separate entry of the source.

Consider `N[C@@H](CC(=O)NO)C(=O)O` [L-ABH, L-aspartic acid β-hydroxamate], for which the “functions of bipolar cells and amacrine cells in the retina (a-, b-wave, oscillatory potential, N1-P1 amplitudes)” value in the data set on db/db mice [1] was “significantly improve the functions of bipolar cells and amacrine cells”. The “degeneration of nerve fiber layer and medial nasal retina (RNFL thickness, total retinal thickness by OCT)” value in the data set with db/db mice [2] is “protect the degeneration of a nerve fiber layer and a medial nasal retina”. Also, in the data set with db/db mice [3], the “RGCs (Brn3a fluorescence counting) in inner, middle and outer retina” value is “significantly protect the RGCs in the middle and outer retina”. The “microvascular lesions (ratio of endothelial cells to pericytes, amount of acellular capillaries)” value with db/db mice [4] was “significantly reduce the microvascular lesions”. Also, in data set [5], the “hypoxia-induced retinal angiogenesis (neovascular area, avascular area)” value is reported as “significantly reduce the hypoxia-induced retinal angiogenesis”. Further, in data set [6] (long-term use), the “nausea, vomiting, diarrhea, lactic acidosis” value is recorded as “does not cause nausea, vomiting, diarrhea, or lactic acidosis”. Besides, in data set [6], the “irritating effect on gastrointestinal tract” value is “no irritating effect on gastrointestinal tract”. For the same compound, in the data set on db/db mice [7] (animal model of type II diabetes), the random blood glucose entry is on record as “reduce random blood glucose”. Besides, in the data set on db/db mice [7], the “oral glucose tolerance test (OGTT)” value is recorded as “significantly improve oral glucose tolerance test (OGTT)” and the “sensitivity of insulin tolerance test (ITT)” value is given as “increase sensitivity of insulin tolerance test (ITT)”. Besides, in data set [8], the hepatotoxicity and nephrotoxicity entry was “not hepatotoxic or nephrotoxic; also recorded: without hepatotoxicity and nephrotoxicity”.
